This is an account of results in the NIST ThermoML archive (doi:10.1016/j.tca.2016.03.016).

Data set [1] can be described thus: Molar enthalpy of transition or fusion. The note with it: DSC.

The structures appear in SMILES notation. Numbers after ± are expanded uncertainties.

`CC(C)(CO)CO` [2,2-dimethyl-1,3-propanediol]: the Normal melting temperature (Crystal 1, DTA) amounted to 128.50 ± 1.1 °C. Besides, where the note is “Crystal 2, DSC”, the Triple point temperature was determined as 314.95 ± 1.2 K. In addition, the figures for the “Molar enthalpy of transition or fusion” value in data set [1] (Crystal 1) and in data set [1] (Crystal 2) were 0.951 ± 0.0526 kcal/mol and 2.65 ± 0.124 kcal/mol, respectively.
